Assays:
[1] = literature; cited from earlier work
[2] = system: microsomal epoxide hydrolase (mEH) and glutathione S-transferases (GST); conditions: literature; cited from earlier work
[3] = literature; cited from earlier work; remark: listed apart in the source
[4] = system: serum ALT (alanine aminotransferase); assay: Effect of inhibiting hepatic disorder induced by carbon tetrachloride: serum ALT; assay type: in vivo, male ICR mice; conditions: CCl4 100 μl/kg i.p., compound 50 mg/kg per day oral, 3 days; for Serum ALT value: mean±SE
Source text: First, the effects of allylthiopyridazine derivative of formula (I) for prevention and treatment of hepatic diseases was examined using carbon tetrachloride model and acetaminophen model.
Carbon tetrachloride model [see, Philippe letteron et al., Biochemical Pharmacology, 39, 12, 2027-2034, 1990] is most frequently used as an experimental model of hepatic disorder and has been established on the basis of the fact that carbon tetrachloride is converted into trichloromethyl free radical (CCl3 .), a highly toxic metabolite, by the action of cytochrome P-450 in body. This metabolite strongly binds with thiol group of liver microsomal membrane protein to produce a lipid radical, which is then converted into peroxy radical in the presence of oxygen, thereby stimulating the peroxidation reaction of membrane lipid. That is, carbon tetrachloride inhibits protein biosynthesis in liver, increases blood ALT (alanine aminotransferase) and causes centrilobular necrosis of liver cells.
(§1) In the present invention, the inhibiting effect of the compound of formula (I) on hepatic disorder, induced by carbon tetrachloride and acetaminophene, was determined after oral administration of the novel compound according to the present invention to mouse as the experimental animal for 3 days. The degree of liver damage in respective experimental animal was determined by measuring ALT and LDH levels in blood [see, Biol. Pharm. Bull., 20, 4, 381-385, 1997; Toxicology and Applied Pharmacology, 95, 1-11, 1988], and further by removing the liver, staining (×100) the liver with hematoxylin and eosin and then observing with microscope to examine the degree of hepatocyte necrosis.
Effect of inhibiting hepatic disorder induced by carbon tetrachloride
(§2) The liver protective effect of the compound according to the present invention was examined according to the known method [see, Philippe letteron et al., Biochemical Pharmacology, 39, 12, 2027-2034, 1990] as specifically described below.
(§3) The compound according to the present invention was suspended in corn oil and the resulting suspension was administered in an amount of 1.0 ml/kg. Each group was composed of 3 to 10 male ICR mice (5-6 weeks) and the test compound was orally administered for 3 days in the dose of 50 mg/kg per day. After the test compound was administered, carbon tetrachloride was intraperitoneally injected in an amount of 100 μl/kg. In this experiment, silymarin was used as the comparative compound. After 24 hours from administration of carbon tetrachloride, blood was taken from the test animal by cardiac perforation and ALT value in serum was determined. The result obtained is described in the following Table 2 (in which ALT value is represented by mean±SE). The ALT unit in serum was determined by centrifuging blood to separate serum as the supernatant, and then the separated serum were subjected to Reitman-Frankel method by means of a commercially available kit (BC101-O,P, Youngdong Pharm.). That is, DL-alanine and α-ketoglutarate were used as the substrate solution to which 2,4-dinitrophenylhydrazine was added to produce hydrazone. Then, sodium hydroxide was added to hydrazone to colorize and then the absorbance was measured at 505 nm.

hepatocyte necrosis [5] = assay: Effect of inhibiting hepatic disorder induced by carbon tetrachloride: hepatocyte necrosis; assay type: in vivo, male ICR mice; conditions: CCl4 model, 50 mg/kg per day oral, 3 days; for Degree of necrosis 1: number of animals: grade 1 mild lesion; for Degree of necrosis 2: number of animals: grade 2 moderate lesion; for Degree of necrosis 3: number of animals: grade 3 severe lesion; for Degree of necrosis 4: number of animals: grade 4 diffused lesion
Description: as §1, §2, §3
(§4) In addition, liver was removed from the test animals, stained (×100) with hematoxylin and eosin and then observed by microscope. The degree of hepatocyte necrosis was evaluated according to the following 5 grades: 0 no lesion, 1 mild lesion, 2 moderate lesion, 3 severe lesion and 4 diffused lesion.

[6] = system: serum ALT (alanine aminotransferase); assay: Effect of inhibiting hepatic disorder induced by acetaminophen (APAP): serum ALT; assay type: in vivo, male ICR mice; conditions: APAP 0.5 g/kg oral, compound 50 mg/kg per day oral, 3 days; for Serum ALT value: mean±SE
Source text: (§5) In addition, the liver protective effects of the compound of the present invention can also be confirmed by acetaminophen model [see, Wang et al., Toxicology and applied Pharmacology, 136, 146-154, 1996]. Acetaminophen is rapidly metabolized by CYP2E1 to cause hepatic toxicity, which results in structural and functional change in liver cellular membrane, causing necrosis in hepatic lobule, an increase in blood ALT and LDH (lactate dehydrogenase) levels.
as §1
(§6) Effect of inhibiting hepatic disorder induced by acetaminophen (APAP)
(§7) The liver protective effect of the compound according to the present invention was examined according to the known method [see, Wang et al., Toxicology and applied Pharmacology, 136, 146-154, 1996] as specifically described below.
(§8) The compound according to the present invention was suspended in corn oil and the resulting suspension was administered in an amount of 1.0 ml/kg. Each group was composed of 3 to 10 male ICR mice (5-6 weeks) and the test compound was orally administered for 3 days in the dose of 50 mg/kg per day. After 2 hours from the last administration of the test compound, acetaminophen was orally administered in an amount of 0.5 g/kg. In this experiment, silymarin was used as the comparative compound. After 22 hours from the administration of acetaminphen, blood was taken from the individual test animal and ALT and LDH values in serum were determined. The results as obtained are described in the following Tables 4 and 5 (in which ALT and LDH values are represented by mean±SE). In addition, liver was removed from the test animals and then observed according to the same manner as Experiment 3 to evaluate the degree of hepatocyte necrosis.

[7] = system: serum LDH (lactate dehydrogenase); assay: Effect of inhibiting hepatic disorder induced by acetaminophen (APAP): serum LDH; assay type: in vivo, male ICR mice; conditions: APAP 0.5 g/kg oral, compound 50 mg/kg per day oral, 3 days; for Serum LDH value: mean±SE
Source text: as §5, §1, §6, §7, §8

hepatocyte necrosis [8] = assay: Effect of inhibiting hepatic disorder induced by acetaminophen (APAP): hepatocyte necrosis; assay type: in vivo, male ICR mice; conditions: APAP model, 50 mg/kg per day oral, 3 days; for Degree of necrosis 0: number of animals: grade 0 no lesion; for Degree of necrosis 1: number of animals: grade 1 mild lesion; for Degree of necrosis 2: number of animals: grade 2 moderate lesion; for Degree of necrosis 3: number of animals: grade 3 severe lesion; for Degree of necrosis 4: number of animals: grade 4 diffused lesion
Description: as §1, §4, §7, §8

[9] = induced by carbon tetrachloride and acetaminophen; cited from earlier work
radiation damage = assay: Protective effect against radiation damage: survival of mouse; assay type: in vivo, male ICR mouse; conditions: 100 mg/kg per day, 2 days
Source text: Further, the present inventors have confirmed the protective effect of allylthiopyridazine derivative according to the present invention against radiation by administering the active compound to mouse, irradiating the radiation of 8 or 9Gy and, after a certain period, measuring the survival rate of mouse. For example, the survival rate during 30 days of 8Gy radiation can be seen from FIG. 3, and the specific experimental result is described in the following Table 7. Specifically, when 8Gy radiation is used, the survival rate during 30 days in the groups which only radiation was used was merely 48%, whereas the survival rates during 30 days in the groups to which the compounds of Examples 4 and 8 are previously administered were 76% and 70%, respectively. Therefore, it can be noted that the protective effect of the compound according to the present invention against radiation is proven to be a very significant novel discovery.
Protective effect against radiation damage
In order to confirm the protective effect of the compound of the present invention against radiation damage, the following test was conducted.
Male ICR mouse was bred in a chamber to which sterile atmosphere is supplied, at inner temperature 20-23° C. and relative humidity 50% with sufficient water and feed. When the weight of mouse reached 20-25 g, the compound of the present invention was suspended in corn oil and then administered for 2 days in the dose of 100 mg/kg (1 ml/kg) per day. After 3 hours from the last administration of the test compound, 8 or 9 Gy radiation was irradiated to mouse. Specifically, mouse was introduced into a box made of acryl which limited his movement, and then radiation produced from ^60 Co radioactive material was irradiated to whole body at the irradiating rate of 115.8 cGy/min. The dimension of acryl box was 31×31 cm^2, which is the same as the irradiating area of radiation. After 7 days of irradiation of γ-ray, mouse was sacrificed to conduct the histopathologic observation. The result of examining the survival rate during 30 days of irradiation of 8 Gy radiation is shown in FIG. 3, and the result of determining the survival rate after a certain period (10, 13 or 30 days) from irradiation of 8 or 9 Gy radiation is described in the following Table 7.

| Structure (SMILES) | effect on oncogenesis and hepatotoxicity of 1,2-dimethylhydrazine [1] | Inhibiting rate (serum ALT) [4] [%] | Serum ALT value [4] [KA unit/l] | Degree of necrosis 1: number of animals (hepatocyte necrosis [5]) | Degree of necrosis 2: number of animals (hepatocyte necrosis [5]) | Degree of necrosis 3: number of animals (hepatocyte necrosis [5]) | Degree of necrosis 4: number of animals (hepatocyte necrosis [5]) | Inhibiting rate (serum ALT) [6] [%] | Serum ALT value [6] [KA unit/l] | Inhibiting rate (serum LDH) [7] [%] | Serum LDH value [7] [KA unit/l] | Degree of necrosis 0: number of animals (hepatocyte necrosis [8]) | Degree of necrosis 1: number of animals (hepatocyte necrosis [8]) | Degree of necrosis 2: number of animals (hepatocyte necrosis [8]) | Degree of necrosis 3: number of animals (hepatocyte necrosis [8]) | Degree of necrosis 4: number of animals (hepatocyte necrosis [8]) | other results |
| --- | --- | --- | --- | --- | --- | --- | --- | --- | --- | --- | --- | --- | --- | --- | --- | --- | --- |
| C=CCSCC=C [diallyl sulfide] | inhibiting oncogenesis due to 1,2-dimethylhydrazine and protecting liver from hepatotoxicity of 1,2-dimethylhydrazine | – | – | – | – | – | – | – | – | – | – | – | – | – | – | – | – |
| Cc1c(-c2cnccn2)ssc1=S [Oltipraz] | – | – | – | – | – | – | – | – | – | – | – | – | – | – | – | – | expression rate of mEH and GST [2]: increases the expression rate of microsomal epoxide hydrolase (mEH) and glutathione S-transferases (GST); protection of cellular tissue from radiation [3]: protect the cellular tissue from radiation |
| C=CCSc1ccc(OCCC)nn1 [Example 12, 3-(n-propoxy)-6-allylthiopyridazine] | – | 40 | 5585 ± 705 | 0 | 2 | 3 | 4 | 25 | 2749 ± 1352 | 59 | 5480 ± 2346 | 0 | 1 | 1 | 1 | 3 | Degree of necrosis 0: number of animals (hepatocyte necrosis [5]; grade 0 no lesion): 0 |
| C=CCS[S+]([O-])CC=C (stereo not drawn) [allicin] | inhibiting oncogenesis due to 1,2-dimethylhydrazine and protecting liver from hepatotoxicity of 1,2-dimethylhydrazine | – | – | – | – | – | – | – | – | – | – | – | – | – | – | – | – |
| CC(C)OC(=O)C(C(=O)OC(C)C)=C1SC=CS1 [malotilate] | – | – | – | – | – | – | – | – | – | – | – | – | – | – | – | – | effect of preventing and treating hepatic diseases [9]: good effect of preventing and treating hepatic diseases induced by carbon tetrachloride and acetaminophen |
| C=CCSc1ccc(OCC)nn1 [Example 8] | – | 33 | 6123 ± 2230 | 1 | 2 | 1 | 3 | 99 | 98 ± 26 | 95.6 | 1193 ± 546 | 7 | 0 | 2 | 0 | 0 | survival number (radiation damage; 10 days of 9 Gy radiation): 17/23; survival rate (radiation damage; 10 days of 9 Gy radiation): 74%; survival number (radiation damage; 13 days of 9 Gy radiation): 5/23; survival rate (radiation damage; 13 days of 9 Gy radiation): 22%; survival number (radiation damage; 30 days of 8 Gy radiation): 16/23; survival rate (radiation damage; 30 days of 8 Gy radiation): 70% |
